The term IC50 denotes the concentration at which inhibition is half-maximal.

Among the data in US20250059220A1, “SUBSTITUTED BENZOTHIOPHENE DERIVATIVES AND METHODS OF USE THEREOF” (Merck Sharp & Dohme LLC, priority 2021, published 2025) are IC50 values, retold here.

For assay [1], the target named is human PTPN2 (1-387) (Homo sapiens (Human), UniProt P17706). Kind of assay: Human PTPN2 Biochemical Assay. Conditions: DiFMUP substrate. An outline of the steps:
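Human PTPN2 (1-387) preincubated 30 min at RT with compound (10-point 3-fold series) in Tris pH 7.4 buffer with 0.5 mM DTT, then DiFMUP substrate added for 1 h at RT. Fluorescence at ex 360/em 460 nm, normalised to no-enzyme and enzyme controls; EC50 from 4-parameter fit.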

For assay [2], the target named is human PTPN1 (1-435) (Homo sapiens (Human), UniProt P18031). Kind of assay: Human PTPN1 Biochemical Assay. Conditions: DiFMUP substrate, read-out: PTP1B IC50. An outline of the steps:
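Read-out is DiFMUP hydrolysis fluorescence (360 nm excitation, 460 nm emission) after 1 h at room temperature, following 30 min enzyme–compound preincubation.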

Chain of human PTPN2 (1-387) (P17706 other isoform, or with tags, fused parts or gaps): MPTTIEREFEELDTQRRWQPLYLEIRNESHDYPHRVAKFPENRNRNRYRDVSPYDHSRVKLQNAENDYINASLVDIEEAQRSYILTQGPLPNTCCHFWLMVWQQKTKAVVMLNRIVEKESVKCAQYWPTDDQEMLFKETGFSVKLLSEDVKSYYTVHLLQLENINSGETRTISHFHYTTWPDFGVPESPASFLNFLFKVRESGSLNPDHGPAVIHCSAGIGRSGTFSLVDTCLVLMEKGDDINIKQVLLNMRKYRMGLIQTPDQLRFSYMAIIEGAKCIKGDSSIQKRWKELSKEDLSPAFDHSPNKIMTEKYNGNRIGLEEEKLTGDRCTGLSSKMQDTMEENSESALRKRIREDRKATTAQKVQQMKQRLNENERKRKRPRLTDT
Chain of human PTPN1 (1-435) (P18031 whole entry): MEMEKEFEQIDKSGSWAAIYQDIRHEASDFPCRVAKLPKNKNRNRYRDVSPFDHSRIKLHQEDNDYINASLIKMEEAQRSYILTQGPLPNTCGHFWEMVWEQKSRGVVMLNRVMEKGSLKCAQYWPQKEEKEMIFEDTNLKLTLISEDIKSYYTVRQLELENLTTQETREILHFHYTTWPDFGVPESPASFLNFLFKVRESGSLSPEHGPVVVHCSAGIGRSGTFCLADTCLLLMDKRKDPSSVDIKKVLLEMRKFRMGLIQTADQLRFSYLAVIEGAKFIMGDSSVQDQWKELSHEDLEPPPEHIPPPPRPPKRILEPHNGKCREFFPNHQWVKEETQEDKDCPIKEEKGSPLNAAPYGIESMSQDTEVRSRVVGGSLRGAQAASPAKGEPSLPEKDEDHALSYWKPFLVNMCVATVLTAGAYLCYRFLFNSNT

With `Cn1cnc(CNC(=O)c2ccc3sc(C(F)(F)P(=O)(O)O)c(Br)c3c2)c1` [Compound 178], the IC50 in assay [1] was found to be 5820 nM; in assay [2] it was 10800 nM.
For `O=C(NCc1ccon1)c1ccc2sc(C(F)(F)P(=O)(O)O)c(Br)c2c1` [Compound 179], the IC50 in assay [1] turned out to be 2570 nM; in assay [2], 2840 nM.
For the molecule `O=C(NC1(c2cccnc2)CC1)c1ccc2sc(C(F)(F)P(=O)(O)O)c(Br)c2c1` [Compound 180], the IC50 in assay [1] turned out to be 6630 nM; in assay [2], 13700 nM.
In the same order, the values of `Cn1cnc(CNC(=O)c2ccc3sc(C(F)(F)P(=O)(O)O)c(Br)c3c2)n1` [Compound 181] are 4100 nM and 2420 nM.
`C[C@@H](NC(=O)c1ccc2sc(C(F)(F)P(=O)(O)O)c(Br)c2c1)c1ncc(F)cn1` [Compound 182]: the IC50 in assay [1] was found to be 5080 nM; in assay [2], 2650 nM.
In the same order, the values of `Cc1cnc(F)c(CNC(=O)c2ccc3sc(C(F)(F)P(=O)(O)O)c(Br)c3c2)c1` [Compound 183] are 2000 nM and 1410 nM.
In the same order, the values of `O=C(NCc1ncc(F)cn1)c1ccc2sc(C(F)(F)P(=O)(O)O)c(Br)c2c1` [Compound 184] are 7340 nM and 4970 nM.
As to `C[C@H](NC(=O)c1ccc2sc(C(F)(F)P(=O)(O)O)c(Br)c2c1)c1ccccn1` [Compound 185], the values for the IC50 in assay [1] and in assay [2] were 5200 nM and 3390 nM, respectively.
On to `C[C@@H](NC(=O)c1ccc2sc(C(F)(F)P(=O)(O)O)c(C#N)c2c1)c1cccnn1` [Compound 186], for which the IC50 stood at 648 nM in assay [1] and 1380 nM in assay [2].
As for `O=C(NCc1n[nH]c(=O)[nH]1)c1ccc2sc(C(F)(F)P(=O)(O)O)c(Br)c2c1` [Compound 187], the half-maximal inhibitory concentration (IC50) in assay [1] amounted to 1860 nM; in assay [2], 961 nM.
For `O=C(NCc1cnsn1)c1ccc2sc(C(F)(F)P(=O)(O)O)c(Br)c2c1` [Compound 188] the same measures were 1410 nM and 714 nM.
For `O=C(NCc1cc(C2CC2)on1)c1ccc2sc(C(F)(F)P(=O)(O)O)c(Br)c2c1` [Compound 189], the IC50 in assay [1] was found to be 1320 nM; in assay [2], 990 nM.
For `Cc1cc(CNC(=O)c2ccc3sc(C(F)(F)P(=O)(O)O)c(Br)c3c2)no1` [Compound 190] the same measures were 1830 nM and 1020 nM.
With `CCC(NC(=O)c1ccc2sc(C(F)(F)P(=O)(O)O)c(Br)c2c1)c1ncnn1C` (stereo not shown) [Compound 191], the IC50 in assay [1] is 2820 nM; in assay [2], 3600 nM.
For `O=C(NC(CO)c1ccccn1)c1ccc2sc(C(F)(F)P(=O)(O)O)c(Br)c2c1` (stereo not shown) [Compound 192] the same measures were 7980 nM and 4590 nM.
In the case of `Cn1nncc1CNC(=O)c1ccc2sc(C(F)(F)P(=O)(O)O)c(Br)c2c1` [Compound 193], the results for the IC50 in assay [1] and in assay [2] were 5840 nM and 3140 nM, respectively.
For `CC(NC(=O)c1ccc2sc(C(F)(F)P(=O)(O)O)c(Br)c2c1)c1ccon1` (stereo not shown) [Compound 194] the same measures were 3200 nM and 1740 nM.
For `CCc1nc(CNC(=O)c2ccc3sc(C(F)(F)P(=O)(O)O)c(Br)c3c2)no1` [Compound 195] the same measures were 5540 nM and 2740 nM.
Take `CCc1noc(CNC(=O)c2ccc3sc(C(F)(F)P(=O)(O)O)c(Br)c3c2)n1` [Compound 196]: the IC50 in assay [1] worked out at 3540 nM; in assay [2], 2100 nM.
As to `CCC(NC(=O)c1ccc2sc(C(F)(F)P(=O)(O)O)c(Br)c2c1)c1ccccn1` (stereo not shown) [Compound 197], the IC50 worked out at 9460 nM in assay [1] and 7210 nM in assay [2].
Consider `Cc1c[nH]c(CNC(=O)c2ccc3sc(C(F)(F)P(=O)(O)O)c(Br)c3c2)n1` [Compound 198], for which the figures for the IC50 in assay [1] and in assay [2] were 5460 nM and 5710 nM, respectively.
For `C[C@@H](NC(=O)c1ccc2sc(C(F)(F)P(=O)(O)O)c(Br)c2c1)c1cccnc1` [Compound 199] the same measures were 1710 nM and 1190 nM.
For `C[C@H](NC(=O)c1ccc2sc(C(F)(F)P(=O)(O)O)c(Br)c2c1)c1cccnc1` [Compound 200] the same measures were 1470 nM and 976 nM.
Turning to `O=C(NCc1cc[nH]n1)c1cc(OCCCC(F)(F)F)c2sc(C(F)(F)P(=O)(O)O)c(Br)c2c1` [Compound 201], the IC50 came to 9.06 nM in assay [1] and 10.9 nM in assay [2].
On to `O=C(NCc1cc[nH]n1)c1ccc2sc(C(F)(F)P(=O)(O)O)c(Br)c2c1` [Compound 202], for which the IC50 was 3650 nM in assay [1] and 2320 nM in assay [2].
In the same order, the values of `CNC(=O)c1cc(OCCCC(F)(F)F)c2sc(C(F)(F)P(=O)(O)O)c(Br)c2c1` [Compound 203] are 16.4 nM and 17.2 nM.
For `CN(C)C(=O)c1cc(OCCCC(F)(F)F)c2sc(C(F)(F)P(=O)(O)O)c(Br)c2c1` [Compound 204], the IC50 came to 1260 nM in assay [1] and 1430 nM in assay [2].
In the case of `O=C(Nc1ccccc1)c1cc(OCCCC(F)(F)F)c2sc(C(F)(F)P(=O)(O)O)c(Br)c2c1` [Compound 205], the IC50 came to 6.95 nM in assay [1] and 7.5 nM in assay [2].
With `O=C(NC1CC(F)(F)C1)c1cc(OCCCC(F)(F)F)c2sc(C(F)(F)P(=O)(O)O)c(Br)c2c1` [Compound 206], the concentration for half-maximal inhibition (IC50) in assay [1] is 8.04 nM; in assay [2], 9 nM.
For `O=C(NC1CC1(F)F)c1cc(OCCCC(F)(F)F)c2sc(C(F)(F)P(=O)(O)O)c(Br)c2c1` (stereo not shown) [Compound 207] the same measures were 9.79 nM and 11.6 nM.
In the case of `C[C@@H](NC(=O)c1cc(OCCCC(F)(F)F)c2sc(C(F)(F)P(=O)(O)O)c(Br)c2c1)c1cccnn1` [Compound 208], the IC50 in assay [1] came to 6.96 nM; in assay [2], 7.5 nM.
In the same order, the values of `O=C(NCc1c[nH]nn1)c1cc(OCCCC(F)(F)F)c2sc(C(F)(F)P(=O)(O)O)c(Br)c2c1` [Compound 209] are 4.63 nM and 6.5 nM.
For `C=C(C)C#Cc1cc(C(N)=O)cc2c(Br)c(C(F)(F)P(=O)(O)O)sc12` [Compound 210], the IC50 in assay [1] was determined as 13.7 nM; in assay [2] it was 132 nM.
As for `CN(C)CCNC(=O)c1cc(OCCCC(F)(F)F)c2sc(C(F)(F)P(=O)(O)O)c(Br)c2c1` [Compound 211], the IC50 is 511 nM in assay [1] and 696 nM in assay [2].
In the same order, the values of `O=C(Nc1ccc2sc(C(F)(F)P(=O)(O)O)c(Br)c2c1)c1ccc(F)cc1` [Compound 212, ((3-bromo-5-(4-fluorobenzamido)benzo[b]thiophen-2-yl)difluoromethyl)phosphonic acid] are 9660 nM and 8150 nM.
In the same order, the values of `O=C(Nc1ccc2sc(C(F)(F)P(=O)(O)O)c(Br)c2c1)C(F)(F)F` [Compound 213] are 6360 nM and 5290 nM.
For the molecule `O=C(Cc1cccnc1)Nc1ccc2sc(C(F)(F)P(=O)(O)O)c(Br)c2c1` [Compound 214], the IC50 in assay [1] was 4320 nM; in assay [2], 3480 nM.
For `O=C(Nc1ccccc1)c1ccc2sc(C(F)(F)P(=O)(O)O)c(Cl)c2c1` [Compound 215, ((3-chloro-5-(phenylcarbamoyl)benzo[b]thiophen-2-yl)difluoromethyl)phosphonic acid] the same measures were 8430 nM and 7550 nM.
For `O=C(Nc1ccccc1)c1ccc2sc(C(F)(F)P(=O)(O)O)c(C(F)F)c2c1` [Compound 216, ((3-(difluoromethyl)-5-(phenylcarbamoyl)benzo[b]thiophen-2-yl)difluoromethyl)phosphonic acid] the same measures were 5760 nM and 6410 nM.
For `Cc1[nH]cnc1CNC(=O)c1ccc2sc(C(F)(F)P(=O)(O)O)c(Br)c2c1` [Compound 217, ((3-bromo-5-(((5-methyl-1H-imidazol-4-yl)methyl)carbamoyl)benzo[b]thiophen-2-yl)difluoromethyl)phosphonic acid] the same measures were 7060 nM and 1840 nM.
As to `O=C(NCc1c[nH]cn1)c1ccc2sc(C(F)(F)P(=O)(O)O)c(Br)c2c1` [Compound 218], the IC50 in assay [1] is 2050 nM; in assay [2], 2900 nM.
Take `O=C(Nc1ccccc1)Nc1ccc2sc(C(F)(F)P(=O)(O)O)c(Br)c2c1` [Compound 219, ((3-bromo-5-(3-phenylureido)benzo[b]thiophen-2-yl)difluoromethyl)phosphonic acid]: the figures for the IC50 in assay [1] and in assay [2] were 3740 nM and 4660 nM, respectively.
As for `COc1cccc(NCc2ccc3sc(C(F)(F)P(=O)(O)O)c(Br)c3c2)c1` [Compound 220, ((3-bromo-5-(((3-methoxyphenyl)amino)methyl)benzo[b]thiophen-2-yl)difluoromethyl)phosphonic acid], the IC50 in assay [1] came out at 6060 nM; in assay [2], 7140 nM.
On to `O=P(O)(O)C(F)(F)c1sc2ccc(OCCc3ccccc3)cc2c1Br` [Compound 221, ((3-bromo-5-phenethoxybenzo[b]thiophen-2-yl)difluoromethyl)phosphonic acid], for which the results for the IC50 in assay [1] and in assay [2] were 6680 nM and 3460 nM, respectively.
As to `O=P(O)(O)C(F)(F)c1sc2c(NCCC3CCCCC3)cccc2c1Br` [Compound 223, ((3-bromo-7-((2-cyclohexylethyl)amino)benzo[b]thiophen-2-yl)difluoromethyl)phosphonic acid], the IC50 in assay [1] was determined as 3210 nM; in assay [2], 2440 nM.
For `CC(C)(O)CCCNc1cccc2c(Br)c(C(F)(F)P(=O)(O)O)sc12` [Compound 224], the IC50 was 1610 nM in assay [1] and 2390 nM in assay [2].
In the same order, the values of `O=P(O)(O)C(F)(F)c1sc2c(NCCCC(F)(F)F)cccc2c1Br` [Compound 226, ((3-bromo-7-((4,4,4-trifluorobutyl)amino)benzo[b]thiophen-2-yl)difluoromethyl)phosphonic acid] are 2690 nM and 2030 nM.
